Laboratory results: patent publication US20180118707A1, “BETA-NAPHTHOISOFLAVONES, COMPOSITIONS CONTAINING, AND USES OF, SAME” (Thesan Pharmaceuticals, Inc., priority 2015, published 2018)

Experiments:
CYP1A1 enzyme = assay: Induction of CYP1A1 enzyme in HepG2 cells, EROD assay; type: cell-based, human; details: 10 uM, 24 h
Protocol: (§1) The formation of resorufin is quantified by fluorometry with a fluorescence plate reader. Fluorescence is determined at λex 570 nm and λem 590 nm. The amount of resorufin is calculated from a standard curve generated using 0 to 1 μM resorufin in water at ½ log dilutions. The remaining (i.e. all cells present at the beginning of analysis, since only supernatant is taken to assay EROD) live cells are subsequently utilized for the MIT cytotoxicity assay. MTT is made up in serum-free medium at 5 mg/ml. then added to the cells giving a final concentration of 10% (0.5 mg/ml MTT final) then incubated for 2 h. The medium is carefully removed, then MTT formazan is solubilized by adding 200 μl of DMSO and subsequently mixed on a plate shaker. The absorbance is measured spectra photometrically at 550 nm and background absorbance at 690 nm is subtracted. A standard curve generated using MIT formazan (dissolved in DMSO) from O—200 μM (0, 2, 5, 10, 20, 50, 100, 200 μM) is used to calculate the final experimental values which are then expressed as (wnol resarufin/mol MTT formazan) or as fold-Induction compared to solvent.

CYP1A1 = assay: as above; type: cell-based, human; details: human, probe 7-ethoxyresorufin (8 μM)
Protocol: as §1

CYP1A1 mRNA = assay: Induction of CYP1A1 mRNA in HepG2 cells (RT-PCR); type: cell-based, human; details: 24 h incubation, 10 uM, normalized to 18S rRNA
Protocol: HepG2 cells (American Type Culture Collection (ATCC), Manassas, Va.) were cultured using Eagle's minimal essential medium (ATCC), supplemented with 10% fetal calf serum (Invitrogen Life Technologies). The cells were cultured continuously until used in experiments (similar to Examples 2 and 3). Celts were plated at a seeding density of 3.8×10^5 cells per well on 6-well plates (Corning Costar, N.Y., U.S.A.). Cells were allowed to attach for 24 h in a 37° C. humidified incubator with a 5% CO2 atmosphere. Media was replaced with that containing test agents or vehicle (0.1% dimethylsuiphoxide) and cells incubated for a further 24 h. Following the 24 h incubation with test agents, media was removed and RNA prepared using the Purelink RNA mini kit (ThermoFischer, Carlsbad, Calif.). Nucleic acid concentration was determined using a Nanodrop™ spectrophotometer (ThermoScientific) by measuring the OD at 260 nm and RNA purity was evaluated using the OD 260/280 nm ratio, 1 μg RNA was reverse transcribed using SuperScript®VILO™ (ThermoFischer) with cDNA synthesis performed using the following parameters: 10min at 25° C., 2 h at 42° C., 5min at 85° C. (deactivation) followed by a completion temperature de C. […] Results were analyzed by calculating the fold change of CYP1A1 mRNA levels normalized to 18S rRNA (ΔΔCt) in compound treated cells or tissues compared to vehicle levels.

human sebocyte cells = assay: MTT cytotoxicity assay in human cultured sebocytes after EROD; type: cell-based
Protocol: The essential methodology for culture and handling of human cultured sebocytes has been described in earlier examples for HEPG2 and NHK cells. Cells are seeded at between 1×10^4 and 2.5×10^4 cells/well in a 96-well microtitre plate. […] The formation of resorufin is quantified by fluorometry with a fluorescence plate reader. Fluorescence is determined at λex 570 nm and λem 590 nm. The amount of resorufin is calculated from a standard curve generated using 0 to 1 μM resorufin in water at ½ log dilutions. The remaining (i.e. all cells present at the beginning of analysis, since only supernatant is taken to assay EROD) live cells are subsequently utilized for the MU cytotoxicity assay. MU is made up in serum-free medium at 5 mg/mi. then added to the cells giving a final concentration of 10% (0.5 mg/ml MIT final) then incubated for 2 h. The medium is carefully removed, then MIT formazan is solubilized by adding 200 μl of DMSO and subsequently mixed on a plate shaker. The absorbance is measured spectrophotometrically at 550 nm and background absorbance at […] is subtracted. A standard curve generated using MTT formazan (dissolved in DMSO) from O—200 μM (0, 2, 5, 10, 20, 50, 100, 200 μM) is used to calculate the final experimental values which are then expressed as (μmol resorufin/mol MTT formazan) or as fold-induction compared to solvent.

O=c1cc(-c2ccccc2)oc2ccc3ccccc3c12 [D, 3-Phenyl-1H-benzo[f]chromen-1-one, reference compound]
% change vs. TCDD EROD (HepG2) at 10 uM (CYP1A1 enzyme): 19% | EC50 at 24 h (CYP1A1): 1000 nM | CYP1A1 mRNA fold change from vehicle (CYP1A1 mRNA): 596 fold | Toxicity threshold (human sebocyte cells): 30 µM
